The source of these data is US12577259B2, “PCSK9 antagonist compounds” (MERCK SHARP & DOHME LLC, priority 2019, dated 2026).

Holding throughout (format): binding
Experiment [1] concerns the target T1, PCSK9 (Homo sapiens, UniProt Q8NBP7).
T1 construct: biotin (biotinylated); purchased
The experiment can be described thus: PCSK9 Alexa FRET Standard TR-FRET assay. The conditions noted are these: biotinylated PCSK9 0.5 nM, 20 nM AF cyclic peptide Reagent A; Ki calculated from IC50 and KD of AF peptide; read-out: Alexa FRET Stdt TR-FRET. The protocol:
(§1) The following is a description of the assays used to determine activity of compounds of the invention, and any comparator compounds reported, toward PCSK9 antagonism. Biotinylated PCSK9 was obtained commercially.
A separate solution containing 40 nM of the AlexaFluor tagged cyclic peptide is made in the same buffer system. An Echo is used to transfer 0.750 ul of compound to an assay plate followed by the addition of 15 ul of PCSK9+Stept-Eu and 15 ul of AF peptide. […] The reaction is incubated at room temperature for at least two hours prior to fluorescence measurements using an Envision Multilabel Reader. IC50 values are determined by fitting data to a sigmoidal dose-response curve using nonlinear regression. Ki is then calculated from the Ic50 and the KD of AF cyclic peptide. Counts (B-counts) of the europium-labeled PCSK9 are followed to observe if compounds are adversely PCSK9. A fall off of the B-counts likely indicates a false positive of inhibition. Data from this procedure is reported as “A=‘numerical value’ (nanomolar)”

Experiment [2] has as its target T1, PCSK9. The experiment can be described thus: PCSK9 Alexa FRET Plus TR-FRET assay. The following applies: biotinylated PCSK9 0.5 nM, 960 nM AF cyclic peptide Reagent B; Ki calculated from IC50 and KD of AF peptide. The protocol:
as §1
An Echo is used to transfer 0.075 ul of compound plus 0.675 ul of DMSO to each well of an assay plate followed by the addition of 15 ul of PCSK9+Stept-Eu and 15 ul of AF peptide. […] The reaction is incubated at room temperature for at least two hours prior to fluorescence measurements using an Envision Multilabel Reader. IC50 values are determined by fitting data to a sigmoidal dose-response curve using nonlinear regression. Ki is then calculated from the Ic50 and the KD of AF cyclic peptide. Counts (B-counts) of the europium-labeled PCSK9 are followed to observe if compounds are adversely affecting PCSK9. […] Data from this procedure is reported as “P=‘numerical value’ (nanomolar)”

The target of experiment [3] is T1, PCSK9. The experiment is described as follows: PCSK9 Alexa FRET Ultra TR-FRET assay. The procedure:
The following is a description of the assays used to determine activity of compounds of the invention, and any comparator compounds reported, toward PCSK9 antagonism. Biotinylated PCSK9 was obtained commercially. […] An Echo is used to transfer 0.015 ul of compound plus 0.735 ul of DMSO to each well of an assay plate followed by the addition of 15 ul of PCSK9+Stept-Eu and 15 ul of AF peptide. […] The reaction is incubated at room temperature for at least two hours prior to fluorescence measurements using an Envision Multilabel Reader. IC50 values are determined by fitting data to a sigmoidal dose-response curve using nonlinear regression. Ki is then calculated from the Ic50 and the KD of AF cyclic peptide. Counts (B-counts) of the europium-labeled PCSK9 are followed to observe if compounds are adversely affecting PCSK9. […] Data from this procedure is reported as “Ki Ultra=‘numerical value’ (data reported is nanomolar)”
On the technique in general: Time-resolved FRET reads energy transfer from a long-lived donor to a nearby acceptor.

Setting [4] is: Ki Ultra, biotinylated PCSK9 0.5 nM, 960 nM AF cyclic peptide, Ki calculated from IC50 and KD of AF peptide, read-out: Alexa FRET Ultra TR-FRET.

T1 sequence (Q8NBP7 153-692): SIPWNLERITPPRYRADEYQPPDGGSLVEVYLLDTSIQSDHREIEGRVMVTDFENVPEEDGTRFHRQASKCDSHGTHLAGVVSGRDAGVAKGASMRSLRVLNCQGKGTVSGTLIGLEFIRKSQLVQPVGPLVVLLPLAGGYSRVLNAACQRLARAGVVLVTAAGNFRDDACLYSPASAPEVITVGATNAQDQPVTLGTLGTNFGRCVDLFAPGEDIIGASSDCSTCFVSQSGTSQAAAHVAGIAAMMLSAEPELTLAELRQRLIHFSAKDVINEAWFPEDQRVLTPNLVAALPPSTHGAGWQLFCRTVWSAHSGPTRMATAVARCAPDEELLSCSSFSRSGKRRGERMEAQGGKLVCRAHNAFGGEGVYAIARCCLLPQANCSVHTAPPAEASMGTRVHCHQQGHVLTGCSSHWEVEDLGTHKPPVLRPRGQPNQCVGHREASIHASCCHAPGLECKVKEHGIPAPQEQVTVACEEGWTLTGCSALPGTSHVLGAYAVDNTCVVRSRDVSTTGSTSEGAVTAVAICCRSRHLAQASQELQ

Take `COc1ccc(C[C@@H]2NC(=O)[C@H]([C@@H](C)O)NC(=O)[C@@H]3[C@@H]4CCN3C(=O)[C@@H]3Cc5cn(c6ccc(F)cc56)Cc5cn(nn5)Cc5cc(ccc5CNC(=O)CCCCCC(=O)N[C@H](CNC(=O)COCCOCCNC(=O)CC[C@H](NC(=O)CCOCCOCC[N+](C)(C)CCNC(=O)COCCOCCNC(=O)COCCOCCNC(=O)CCC(NC(=O)CCCCCCCCCCCCCCCCC(=O)O)C(=O)O)C(=O)O)C(=O)N[C@@H](Cc5cccc(c5)C/C=C/CO4)C(=O)N3)CCNC(=O)[C@]3(C)CCCN3C2=O)cc1` (some centres unmarked) [Example 1]: the results for the Ki in experiment [1], in experiment [2] and in experiment [3] (setting [4]) were below 1.26 nM, 0.205 nM and 0.488 nM, respectively.

Take `COc1ccc(C[C@@H]2NC(=O)[C@H]([C@@H](C)O)NC(=O)[C@@H]3[C@@H]4CCN3C(=O)[C@@H]3Cc5cn(c6ccc(F)cc56)Cc5cn(nn5)Cc5cc(ccc5CNC(=O)CCCCCC(=O)N[C@H](CNC(=O)COCCOCC[N+](C)(C)CCNC(=O)COCCOCCNC(=O)COCCOCCNC(=O)CCC(NC(=O)CCCCCCCCOCCCCCCCCC(=O)O)C(=O)O)C(=O)N[C@@H](Cc5cccc(c5)C/C=C/CO4)C(=O)N3)CCNC(=O)[C@]3(C)CCCN3C2=O)cc1` (some centres unmarked) [Example 2]: the Ki is below 1.26 nM in experiment [1], 0.024 nM in experiment [2] and 0.14 nM in experiment [3] (setting [4]).

With `COc1ccc(C[C@@H]2NC(=O)[C@H]([C@@H](C)O)NC(=O)[C@@H]3[C@@H]4CCN3C(=O)[C@@H]3Cc5cn(c6ccc(F)cc56)Cc5cn(nn5)Cc5cc(ccc5CNC(=O)CCCCCC(=O)N[C@H](CNC(=O)CCOCCOCC[N+](C)(C)CCNC(=O)COCCOCCNC(=O)COCCOCCNC(=O)CC[C@@H](NC(=O)CC[C@@H](NC(=O)CCCCCCCCCCCCCCCCC(=O)O)C(=O)O)C(=O)O)C(=O)N[C@@H](Cc5cccc(c5)C/C=C/CO4)C(=O)N3)CCNC(=O)[C@]3(C)CCCN3C2=O)cc1` [Example 3], the Ki in experiment [1] is below 1.26 nM; in experiment [2], 0.082 nM; in experiment [3] (setting [4]), 0.43 nM.

For `COc1ccc(C[C@@H]2NC(=O)[C@H]([C@@H](C)O)NCC(=O)[C@@H]3[C@@H]4CCN3C(=O)[C@@H]3Cc5cn(c6ccc(F)cc56)Cc5cn(nn5)Cc5cc(ccc5CNC(=O)CCCCCC(=O)N[C@H](CNC(=O)CCOCCOCC[N+](C)(C)CCOCCNC(=O)COCCOCCNC(=O)COCCOCCNC(=O)CC[C@H](NC(=O)CC[C@H](NC(=O)CCCCCCCCCCCCCCC(=O)O)C(=O)O)C(=O)O)C(=O)N[C@@H](Cc5cccc(c5)C/C=C/CO4)C(=O)N3)CCNC(=O)[C@]3(C)CCCN3C2=O)cc1` [Example 4], the Ki in experiment [1] was below 1.26 nM; in experiment [2], 0.037 nM; in experiment [3] (setting [4]) it was 0.16 nM.

For the compound `COc1ccc(C[C@@H]2NC(=O)[C@H]([C@@H](C)O)NC(=O)[C@@H]3[C@@H]4CCN3C(=O)[C@@H]3Cc5cn(c6ccc(F)cc56)Cc5cn(nn5)Cc5cc(ccc5CNC(=O)CCCCCC(=O)N[C@H](CNC(=O)CCOCCOCC[N+](C)(C)CCNC(=O)COCCOCCNC(=O)COCCOCCNC(=O)CC[C@H](NC(=O)CCCCCCCCCCCCCCC(=O)O)C(=O)O)C(=O)N[C@@H](Cc5cccc(c5)C/C=C/CO4)C(=O)N3)CCNC(=O)[C@]3(C)CCCN3C2=O)cc1` [Example 5], the Ki in experiment [1] was below 1.26 nM; in experiment [2] it was 0.036 nM; in experiment [3] (setting [4]) it was 0.13 nM.

Consider `COc1ccc(C[C@@H]2NC(=O)[C@H]([C@@H](C)O)NC(=O)[C@@H]3[C@@H]4CCN3C(=O)[C@@H]3Cc5cn(c6ccc(F)cc56)Cc5cn(nn5)Cc5cc(ccc5CNC(=O)CCCCCC(=O)N[C@H](CNC(=O)CCOCCOCC[N+](C)(C)CCNC(=O)COCCOCCNC(=O)COCCOCCNC(=O)CC[C@H](NC(=O)CC[C@H](NC(=O)CCCCCCCCCCCCCCCCC(=O)O)C(=O)O)C(=O)O)C(=O)N[C@@H](Cc5cccc(c5)C/C=C/CO4)C(=O)N3)CCNC(=O)[C@]3(C)CCCN3C2=O)cc1` [Example 6], for which the Ki in experiment [1] was below 1.26 nM; in experiment [2] it was 0.049 nM; in experiment [3] (setting [4]) it was 0.36 nM.

As for `COc1ccc(C[C@@H]2NC(=O)[C@H]([C@@H](C)OCc3cn(CCNC(=O)CCOCCOCC[N+](C)(C)C)nn3)NC(=O)[C@@H]3[C@@H]4CCN3C(=O)[C@@H]3Cc5cn(c6ccc(F)cc56)CCCCCCN(Cc5ccc(cc5)CCNC(=O)[C@]5(C)CCCN5C2=O)C(=O)CCC(=O)N[C@@H](C)C(=O)N[C@H](CNC(=O)COCCOCCNC(=O)COCCOCCNC(=O)CC[C@H](NC(=O)CCCCCCCCCCCCCCCCC(=O)O)C(=O)O)C(=O)N[C@@H](Cc2cccc(c2)CNC(=O)CO4)C(=O)N3)cc1` [Example 7], the Ki in experiment [1] is below 1.26 nM; in experiment [2], below 0.006 nM; in experiment [3] (setting [4]), 0.004 nM.

Regarding `COc1ccc(C[C@@H]2NC(=O)[C@H]([C@@H](C)OCc3cn(CCNC(=O)COCCOCCNC(=O)COCCOCCNC(=O)CC[C@H](NC(=O)CCCCCCCCCCCCCCCCC(=O)O)C(=O)O)nn3)NC(=O)[C@@H]3[C@@H]4CCN3C(=O)[C@@H]3Cc5cn(c6ccc(F)cc56)CCCCCCN(Cc5ccc(cc5)CCNC(=O)[C@]5(C)CCCN5C2=O)C(=O)CCC(=O)N[C@@H](C)C(=O)N[C@H](CNC(=O)CCOCCOCC[N+](C)(C)C)C(=O)N[C@@H](Cc2cccc(c2)CNC(=O)CO4)C(=O)N3)cc1` [Example 8], the Ki is below 1.26 nM in experiment [1], below 0.006 nM in experiment [2] and 0.006 nM in experiment [3].

Take `COc1ccc(C[C@@H]2NC(=O)[C@H]([C@@H](C)Oc3cn(CCNC(=O)CCOCCOCC[N+](C)(C)CCNC(=O)COCCOCCNC(=O)COCCOCCNC(=O)CCC(NC(=O)CC[C@H](NC(=O)CCCCCCCCCCCCCCCCC(=O)O)C(=O)O)C(=O)O)nn3)NC(=O)[C@@H]3[C@@H]4CCN3C(=O)[C@@H]3Cc5cn(c6ccc(F)cc56)CCCCCCN(Cc5ccc(cc5)CCNC(=O)[C@]5(C)CCCN5C2=O)C(=O)CCC(=O)N[C@@H](C)C(=O)N[C@H](CNC(=O)CCOCCOCC[N+](C)(C)C)C(=O)N[C@@H](Cc2cccc(c2)C/C=C/CO4)C(=O)N3)cc1` (some centres unmarked) [Example 9]: the Ki in experiment [1] is below 1.26 nM; in experiment [2], below 0.006 nM; in experiment [3] it was 0.003 nM.

Regarding `COc1ccc(C[C@@H]2NC(=O)[C@H]([C@@H](C)O)NC(=O)[C@@H]3[C@@H]4CCN3C(=O)[C@@H]3Cc5cn(c6ccc(F)cc56)CCCCCCN(Cc5ccc(cc5)CCNC(=O)[C@]5(C)CCCN5C2=O)C(=O)CCOCCC(=O)N[C@H](CNC(=O)CCOCCOCC[N+](C)(C)CCNC(=O)COCCOCCNC(=O)COCCOCCNC(=O)CC[C@H](NC(=O)CC[C@H](NC(=O)CCCCCCCCCCCCCCCCC(=O)O)C(=O)O)C(=O)O)C(=O)N[C@@H](Cc2cccc(c2)CNC(=O)CO4)C(=O)N3)cc1` [Example 10], the Ki was below 1.26 nM in experiment [1], below 0.006 nM in experiment [2] and 0.004 nM in experiment [3].

For `COc1ccc(C[C@@H]2NC(=O)[C@H]([C@@H](C)O)NC(=O)[C@@H]3[C@@H]4CCN3C(=O)[C@@H]3Cc5cn(c6ccc(F)cc56)CCCCCCN(Cc5ccc(cc5)CCNC(=O)[C@]5(C)CCCN5C2=O)C(=O)CCOCCC(=O)N[C@H](CNC(=O)CCOCCOCC[N+](C)(C)CCNC(=O)COCCOCCNC(=O)COCCOCCNC(=O)CCC(NC(=O)CCCCCCCCCCCCCCC(=O)O)C(=O)O)C(=O)N[C@@H](Cc2cccc(c2)CNC(=O)CO4)C(=O)N3)cc1` (some centres unmarked) [Example 11], the Ki was below 1.26 nM in experiment [1], below 0.006 nM in experiment [2] and 0.001 nM in experiment [3] (setting [4]).

In the case of `COc1ccc(C[C@@H]2NC(=O)[C@H]([C@@H](C)O)NC(=O)[C@@H]3[C@@H]4CCN3C(=O)[C@@H]3Cc5cn(c6ccc(F)cc56)CCCCCCN(Cc5ccc(cc5)CCNC(=O)[C@]5(C)CCCN5C2=O)C(=O)CCCCCC(=O)N[C@H](CNC(=O)CCOCCOCC[N+](C)(C)CCNC(=O)COCCOCCNC(=O)COCCOCCNC(=O)CC[C@H](NC(=O)CCCCCCCCCCCCCCC(=O)O)C(=O)O)C(=O)N[C@@H](Cc2cccc(c2)CNC(=O)CO4)C(=O)N3)cc1` [Example 13], the Ki in experiment [1] is below 1.26 nM; in experiment [2], below 0.006 nM.
